{
  "source": "patent US8163169B2",
  "about": "“Hydroconversion processes employing multi-metallic catalysts and method for making thereof” (Chevron U.S.A. Inc., priority 2007, dated 2012)",
  "origin": "cited, not measured here",
  "system": "rats",
  "details": "single oral dose to rats",
  "data": [
    {"smiles": "O=CC(=O)O", "note": "[glyoxylic]", "values": [
      {"measurement": "LD50", "value": 3000, "unit": "mg/kg"}
    ]}
  ]
}
